What all share (test): inhibition of tumour cell growth, NCI panel, 48 h
The test system of test [1] is K562.
Test [2] deals with U-251.
Test [3] concerns CCRF-CEM.
Test [4] relates to RPMI-8226.
Test [5] concerns NCI-H226.
Test [6] relates to NCI-H23.
The subject of test [7] is NCI-H460.
For test [8], the system named is TK-10.
The test system of test [9] is NCI-H522.
For test [10], the system named is SF-268.
Test [11] concerns SK-OV-3.
Test [12] deals with SK-MEL-5.
Test [13] concerns COLO 205.
Test [14] deals with HCT-116.
Test [15] relates to SNB-19.
The subject of test [16] is UACC-257.
Test [17] has as its system Hs-578T.
Test [18] deals with MCF7.
Test [19] deals with HL-60.

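Assay format: 96-well plates, 48-hour exposure. GI50: concentration for 50% inhibition of growth.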 Active and inactive are the calls of the source. Cut-off read from the data, not from the text of the source: active = GI50 up to about 1.1 µM and inactive = higher.

The values below come from ChEMBL document CHEMBL1201862, “PubChem BioAssay data set” (2004).

As for `COc1cc2c(c3c1c(=O)c1ccccc1n3C)C=C([N+](=O)[O-])C(C)(C)O2`, the GI50 in [1] was 0.441 µM (active); in test [2], 26.8 µM (inactive); in test [3], 0.468 µM (active); in [4] it was > 31.6 µM (inactive); in test [5], 0.546 µM (active); in test [6], 0.395 µM (active). In addition, the GI50 in [7] is < 0.0201 µM (active); in test [8] it was > 65.2 µM (inactive); in test [9], 0.365 µM (active); in test [10] it was 0.608 µM (active); in test [11], 0.356 µM (active); in [12] it was 0.0141 µM (active). In addition, the GI50 was 0.0253 µM (active) in [13]; 0.239 µM (active) in test [14]; 1.69 µM (inactive) in [15]; < 0.0454 µM (active) in test [16]; 25.6 µM (inactive) in [17]; 0.358 µM (active) in test [18]. The GI50 in [19] was 0.167 µM (active).

With `OC(C/C(=N\N1CCCCC1)c1cccs1)(C(F)(F)F)C(F)(F)F`, the GI50 in test [1], in [2], in test [3], in test [4], in test [5] and in test [6] was > 10 µM (inactive) throughout. Besides, the GI50 in [7], in test [8], in test [9], in test [10], in [11] and in test [12] was > 10 µM (inactive) in each case. For the same compound, the GI50 in test [13], in [14], in test [15], in test [16], in test [17] and in [18] was > 10 µM (inactive) throughout. The GI50 in test [19] was > 10 µM (inactive).

For `C=CCC1(CN(C)C)CC/C(=C\c2ccc(Cl)cc2)C1=O` (stereo not drawn), the GI50 in test [1] is 26.9 µM (inactive); in [2] it was 38.1 µM (inactive); in test [3] it was 15.9 µM (inactive); in [4], 17 µM (inactive); in test [5], 96.8 µM (inactive); in test [6] it was 47.5 µM (inactive). Moreover, the GI50 was 20.2 µM (inactive) in [7]; > 100 µM (inactive) in test [8]; 18.9 µM (inactive) in test [9]; 37.8 µM (inactive) in test [10]; > 100 µM (inactive) in test [11]; 28.8 µM (inactive) in [12]. Moreover, the GI50 was 27.2 µM (inactive) in test [13]; 19.9 µM (inactive) in test [14]; 77.3 µM (inactive) in test [15]; 25.5 µM (inactive) in [16]; 29.9 µM (inactive) in [19].

With `CO[C@@](c1ccccc1)(c1nc(C#N)c(N)o1)C(F)(F)F`, the GI50 in test [1] was 33.7 µM (inactive); in [2], > 100 µM (inactive); in [3], 26.5 µM (inactive); in test [4], 36.3 µM (inactive); in test [5] it was > 100 µM (inactive); in test [6], > 100 µM (inactive). Further, the GI50 in test [8] was > 100 µM (inactive); in [9], 26.6 µM (inactive); in [11], > 100 µM (inactive); in test [12] it was > 100 µM (inactive); in test [13] it was > 100 µM (inactive); in test [14], 78.2 µM (inactive). Besides, the GI50 in [15] is > 100 µM (inactive); in test [16], 85.5 µM (inactive); in [18], > 100 µM (inactive).

On to `CC1CN=C(N(Cc2ccccc2)C(=O)Nc2ccc(Cl)c(Cl)c2)S1` (stereo not drawn), for which the GI50 in test [1] was 21.1 µM (inactive); in test [2], 32.4 µM (inactive); in [3] it was > 10 µM (inactive); in [4] it was 33.7 µM (inactive); in [6], 43.1 µM (inactive); in test [7] it was 35.7 µM (inactive). The GI50 in [8] was 32.4 µM (inactive); in test [10], 62.7 µM (inactive); in test [11], 52.4 µM (inactive); in test [12], 23.3 µM (inactive); in test [13] it was 31.4 µM (inactive); in test [14], 27.7 µM (inactive). The GI50 in test [15] is 62.4 µM (inactive); in [16] it was 32.5 µM (inactive); in [17] it was 53.1 µM (inactive); in [18], 52.1 µM (inactive); in test [19] it was > 10 µM (inactive).

On to `C[C@]12CC[C@H](OCCC#N)CC1=CC[C@@H]1C2CC[C@]2(C)/C(=N/OCCC#N)CCC12` (stereo partly drawn), for which the GI50 in test [1] was > 22.4 µM (inactive); in test [2], 24.8 µM (inactive); in test [3], > 100 µM (inactive); in test [4], > 100 µM (inactive); in test [5] it was > 100 µM (inactive); in test [6] it was 10.8 µM (inactive). The GI50 in test [7] is 97.7 µM (inactive); in test [8] it was > 44.4 µM (inactive); in [9] it was 20.9 µM (inactive); in test [10], > 100 µM (inactive); in [11], > 63 µM (inactive); in test [12], > 21 µM (inactive). Also, the GI50 is > 100 µM (inactive) in test [13]; > 21 µM (inactive) in test [14]; 36.6 µM (inactive) in test [15]; 6.62 µM (inactive) in [16]; 2.48 µM (inactive) in test [19].

For `O=c1[nH]nc(-c2ccccc2)n1/N=C/c1c[nH]c2ccccc12`, the GI50 in test [1], in test [2], in [3], in test [4], in [5] and in test [6] was > 100 µM (inactive) throughout. In addition, the GI50 is > 100 µM (inactive) in [7]; 17.6 µM (inactive) in [8]; > 100 µM (inactive) in [9]; 74.6 µM (inactive) in [10]; > 100 µM (inactive) in test [11]; > 100 µM (inactive) in [12]. In addition, the GI50 in test [13] was > 100 µM (inactive); in test [14] it was 42.9 µM (inactive); in test [15], > 100 µM (inactive); in [16] it was > 100 µM (inactive); in [17], > 100 µM (inactive); in test [18], > 100 µM (inactive). Further, the GI50 in test [19] was > 100 µM (inactive).

Consider `O=C1C(=Cc2cccs2)C(=O)N(CCc2ccccc2)S(=O)(=O)N1CCc1ccccc1`, for which the GI50 in test [1] is 32.7 µM (inactive); in test [2], 12.9 µM (inactive); in [3], 36.9 µM (inactive); in [4], 20.7 µM (inactive); in [5], > 50 µM (inactive); in [6] it was > 50 µM (inactive). Also, the GI50 was > 50 µM (inactive) in [7]; > 50 µM (inactive) in [8]; 15.5 µM (inactive) in test [9]; 36.2 µM (inactive) in [10]; > 50 µM (inactive) in test [11]; > 50 µM (inactive) in [12]. Besides, the GI50 in test [13] is > 50 µM (inactive); in test [14] it was 11.7 µM (inactive); in test [15], > 50 µM (inactive); in test [16], > 50 µM (inactive); in [19], 14 µM (inactive).

On to `CC1(C)C(O)C[C@@H](O)[C@@]2(C)C1CC[C@]1(C)C2C[C@@H](O)[C@@H]2C([C@@]3(C)CC[C@@H](C(C)(C)O)O3)CCC21C` (stereo partly drawn), for which the GI50 in test [1] is 35.2 µM (inactive); in test [2] it was 12.9 µM (inactive); in test [3] it was 17.8 µM (inactive); in test [4] it was 16.7 µM (inactive); in test [5], 19.5 µM (inactive); in test [6], 17.4 µM (inactive). In addition, the GI50 was 18.9 µM (inactive) in test [7]; 27.2 µM (inactive) in test [8]; 14.6 µM (inactive) in test [9]; 17.2 µM (inactive) in [10]; 15.9 µM (inactive) in [11]; 10.4 µM (inactive) in [12]. Also, the GI50 in test [13] was 16.4 µM (inactive); in test [14], 17 µM (inactive); in [15] it was 14.2 µM (inactive); in test [16], 21 µM (inactive); in [19], 14.2 µM (inactive).

As for `CC1C/C(=C\c2ccc(OC(=O)C(C)(C)C)cc2)C(=O)/C(=C/c2ccc(OC(=O)C(C)(C)C)cc2)C1` (stereo not drawn), the GI50 in test [1] is 84.7 µM (inactive); in test [2], 31 µM (inactive); in test [3], 2.34 µM (inactive); in [5], 22.2 µM (inactive); in [6], 24 µM (inactive); in test [7] it was > 100 µM (inactive). Moreover, the GI50 in test [8] was > 100 µM (inactive); in [9] it was 4.29 µM (inactive); in test [10] it was 87.7 µM (inactive); in test [11], > 100 µM (inactive); in test [12] it was 57.3 µM (inactive); in test [13], > 100 µM (inactive). For the same compound, the GI50 in test [14] is 61.2 µM (inactive); in test [15] it was > 100 µM (inactive); in test [16], > 100 µM (inactive); in test [17], 49.3 µM (inactive); in test [18] it was 45.5 µM (inactive); in test [19] it was 23.5 µM (inactive).

In the case of `C[C@@H]1[C@H](C)N1CC(O)Cn1ccnc1[N+](=O)[O-]` (stereo partly drawn), the GI50 in [1], in test [2], in test [3], in test [5], in test [6] and in test [7] was > 100 µM (inactive) in each case. Also, the GI50 in test [8], in test [9], in test [10], in test [11], in test [12] and in test [13] was > 100 µM (inactive) in each case. Also, the GI50 in test [14], in test [15], in test [16], in test [17], in test [18] and in test [19] was > 100 µM (inactive) throughout.
